Key:
[1] = target: ROCK1 (Homo sapiens, UniProt Q13464); assay: In vitro Rho kinase inhibitory activity assay (ADP-Glo), Rho kinase 1; format: biochemical; settings: Ki by Cheng-Prusoff from IC50; 10 μM ATP, 25° C., Myelin Basic Protein substrate; range of activity
Protocol: (§1) The effectiveness of compounds of the invention to inhibit Rho kinase activity can be determined in a 10 μl assay containing 40 mM Tris pH7.5, 20 mM MgCl2 0.1 mg/ml BSA, 50 μM DTT and 2.5 μM peptide substrate (Myelin Basic Protein) using an ADP-Glo kit (Promega). Compounds were dissolved in DMSO such that the final concentration of DMSO was 1% in the assay. All reactions/incubations are performed at 25° C. Compound (2 ul) and either Rho kinase 1 or 2 (4 μl) were mixed and incubated for 30 mins. Reactions were initiated by addition of ATP (4 μl) such that the final concentration of ATP in the assay was 10 μM. After a 1 hour incubation 10 μl of ADP-Glo Reagent was added and after a further 45 minute incubation 20 ul of Kinase Detection Buffer was added and the mixture incubated for a further 30 minutes. The luminescent signal was measured on a luminometer. […] Compounds were tested in dose-response format and the inhibition of kinase activity was calculated at each concentration of compound. To determine the IC50 (concentration of compound required to inhibit 50% of the enzyme activity) data were fit to a plot of % inhibition vs Log 10 compound concentration using a sigmoidal fit with a variable slope and fixing the maximum to 100% and the minimum to 0%. To determine the Ki values the Cheng-Prusoff equation was utilized (Ki=IC50/(1+[S]/Km)

[2] = target: ROCK2 (Homo sapiens, UniProt O75116); assay: In vitro Rho kinase inhibitory activity assay (ADP-Glo), Rho kinase 2; format: biochemical; settings: Ki by Cheng-Prusoff from IC50; 10 μM ATP, 25° C., Myelin Basic Protein substrate; range of activity
Protocol: as §1

ROCK2, sequence (O75116 whole entry): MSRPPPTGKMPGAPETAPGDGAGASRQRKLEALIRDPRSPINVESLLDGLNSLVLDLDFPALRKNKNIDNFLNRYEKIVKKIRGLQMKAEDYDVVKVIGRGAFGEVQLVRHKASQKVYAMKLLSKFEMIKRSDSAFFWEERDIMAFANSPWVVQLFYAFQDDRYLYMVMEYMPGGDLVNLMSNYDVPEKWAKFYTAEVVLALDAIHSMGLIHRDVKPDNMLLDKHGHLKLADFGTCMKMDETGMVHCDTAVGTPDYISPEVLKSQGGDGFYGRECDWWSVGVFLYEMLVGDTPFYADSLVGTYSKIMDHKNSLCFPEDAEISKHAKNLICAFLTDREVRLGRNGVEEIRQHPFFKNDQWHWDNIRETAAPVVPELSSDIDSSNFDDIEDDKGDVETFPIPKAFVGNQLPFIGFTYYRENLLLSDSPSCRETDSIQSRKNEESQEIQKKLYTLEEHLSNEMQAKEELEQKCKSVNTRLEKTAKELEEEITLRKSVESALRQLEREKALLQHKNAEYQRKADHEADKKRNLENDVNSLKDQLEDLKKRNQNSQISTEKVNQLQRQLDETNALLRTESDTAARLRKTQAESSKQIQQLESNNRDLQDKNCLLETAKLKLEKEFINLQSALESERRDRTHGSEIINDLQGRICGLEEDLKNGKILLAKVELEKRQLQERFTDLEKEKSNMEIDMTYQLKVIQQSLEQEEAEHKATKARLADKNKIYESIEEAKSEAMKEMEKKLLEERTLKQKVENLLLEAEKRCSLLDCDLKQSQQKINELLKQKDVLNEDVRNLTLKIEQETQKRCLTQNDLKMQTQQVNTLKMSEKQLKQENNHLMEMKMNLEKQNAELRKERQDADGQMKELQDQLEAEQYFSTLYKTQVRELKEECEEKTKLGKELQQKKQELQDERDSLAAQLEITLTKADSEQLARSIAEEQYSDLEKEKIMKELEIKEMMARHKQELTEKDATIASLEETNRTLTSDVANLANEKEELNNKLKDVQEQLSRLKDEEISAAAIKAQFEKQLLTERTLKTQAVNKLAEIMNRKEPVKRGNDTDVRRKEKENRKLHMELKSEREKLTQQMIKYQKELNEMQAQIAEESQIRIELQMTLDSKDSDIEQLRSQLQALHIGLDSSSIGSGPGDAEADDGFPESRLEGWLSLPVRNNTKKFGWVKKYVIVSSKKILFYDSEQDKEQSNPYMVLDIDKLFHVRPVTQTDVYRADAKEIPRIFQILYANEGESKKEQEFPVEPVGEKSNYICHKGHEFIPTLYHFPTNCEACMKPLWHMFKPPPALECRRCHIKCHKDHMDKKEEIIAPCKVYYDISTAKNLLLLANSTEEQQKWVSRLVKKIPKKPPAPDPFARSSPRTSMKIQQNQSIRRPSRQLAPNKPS
ROCK1, sequence (Q13464 whole entry): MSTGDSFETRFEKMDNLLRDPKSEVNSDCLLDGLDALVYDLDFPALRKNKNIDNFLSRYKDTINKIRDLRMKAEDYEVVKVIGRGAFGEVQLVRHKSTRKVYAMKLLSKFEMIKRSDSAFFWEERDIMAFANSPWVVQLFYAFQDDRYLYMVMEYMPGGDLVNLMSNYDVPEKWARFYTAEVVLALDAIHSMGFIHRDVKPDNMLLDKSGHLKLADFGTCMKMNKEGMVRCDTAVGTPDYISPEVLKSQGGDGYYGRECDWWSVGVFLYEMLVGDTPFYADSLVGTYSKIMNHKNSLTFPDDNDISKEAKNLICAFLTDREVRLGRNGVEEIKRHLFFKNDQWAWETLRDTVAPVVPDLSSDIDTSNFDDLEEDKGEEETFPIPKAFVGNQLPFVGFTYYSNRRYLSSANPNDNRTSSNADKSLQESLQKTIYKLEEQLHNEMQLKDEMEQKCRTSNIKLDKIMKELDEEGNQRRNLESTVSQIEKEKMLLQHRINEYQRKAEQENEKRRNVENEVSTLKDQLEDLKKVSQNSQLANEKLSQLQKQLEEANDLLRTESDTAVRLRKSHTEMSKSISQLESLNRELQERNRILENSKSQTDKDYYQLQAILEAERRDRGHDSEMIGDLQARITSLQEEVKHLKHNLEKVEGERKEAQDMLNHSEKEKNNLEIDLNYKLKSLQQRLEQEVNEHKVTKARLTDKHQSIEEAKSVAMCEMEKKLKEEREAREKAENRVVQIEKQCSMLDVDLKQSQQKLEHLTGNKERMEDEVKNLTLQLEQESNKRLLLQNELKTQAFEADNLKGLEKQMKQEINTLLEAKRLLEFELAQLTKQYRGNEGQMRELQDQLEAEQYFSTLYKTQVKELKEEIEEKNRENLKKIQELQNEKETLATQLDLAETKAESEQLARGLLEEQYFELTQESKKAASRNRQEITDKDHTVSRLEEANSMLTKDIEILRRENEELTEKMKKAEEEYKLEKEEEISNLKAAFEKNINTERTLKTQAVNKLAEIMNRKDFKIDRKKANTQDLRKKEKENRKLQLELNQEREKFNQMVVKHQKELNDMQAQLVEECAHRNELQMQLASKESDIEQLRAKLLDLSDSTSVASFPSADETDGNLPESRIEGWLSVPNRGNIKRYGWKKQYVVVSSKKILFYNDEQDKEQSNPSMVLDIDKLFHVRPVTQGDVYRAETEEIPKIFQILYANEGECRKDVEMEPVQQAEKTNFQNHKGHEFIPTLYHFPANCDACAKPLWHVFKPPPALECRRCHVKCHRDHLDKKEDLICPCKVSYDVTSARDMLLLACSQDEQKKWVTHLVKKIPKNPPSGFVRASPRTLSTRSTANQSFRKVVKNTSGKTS

SMILES	Ki [1] [nM]	Ki [2] [nM]
Cc1c[nH]c2nccc(Oc3ccc(C[C@H](N)c4nc(-c5cccnc5)no4)cc3F)c12 [Example 5, (S)-2-(3-fluoro-4-((3-methyl-1H-pyrrolo[2,3-b]pyridin-4-yl)oxy)phenyl)-1-(3-(pyridin-3-yl)-1,2,4-oxadiazol-5-yl)ethanamine]	5 to 50	5 to 50
Cc1c[nH]c2nccc(Oc3ccc(CC(CN)c4nc(CCc5ccccc5)no4)cc3F)c12 (stereo not drawn) [Example 8, 3-(3-fluoro-4-((3-methyl-1H-pyrrolo[2,3-b]pyridin-4-yl)oxy)phenyl)-2-(3-phenethyl-1,2,4-oxadiazol-5-yl)propan-1-amine]	< 5	< 5
Cc1c[nH]c2nccc(Oc3ccc(C[C@H](N)c4nc(CCc5ccccc5)no4)cc3F)c12 [Example 4, (S)-2-(3-fluoro-4-((3-methyl-1H-pyrrolo[2,3-b]pyridin-4-yl)oxy)phenyl)-1-(3-phenethyl-1,2,4-oxadiazol-5-yl)ethanamine]	< 5	< 5
Cc1c[nH]c2nccc(Oc3ccc(C[C@H](N)c4nnc(Cc5ccccc5)o4)cc3F)c12 [Example 9, (S)-1-(5-benzyl-1,3,4-oxadiazol-2-yl)-2-(3-fluoro-4-((3-methyl-1H-pyrrolo [2,3-b]pyridin-4-yl)oxy)phenyl)ethanamine]	< 5	< 5
Cc1c[nH]c2nccc(Oc3ccc(C[C@H](N)c4nc(CCCN(C)C)no4)cc3F)c12 [Example 6, (S)-3-(5-(1-amino-2-(3-fluoro-4-((3-methyl-1H-pyrrolo[2,3-b]pyridin-4-yl)oxy)phenyl)ethyl)-1,2,4-oxadiazol-3-yl)-N,N-dimethylpropan-1-amine]	5 to 50	5 to 50
N[C@@H](Cc1ccc(Oc2ccnc3[nH]ccc23)cc1)c1nc(-c2ccccc2)no1 [Example 7, (S)-2-(4-((1H-pyrrolo[2,3-b]pyridin-4-yl)oxy)phenyl)-1-(3-phenyl-1,2,4-oxadiazol-5-yl)ethanamine]	> 50	> 50
Cc1noc([C@@H](N)Cc2ccc(Oc3ccnc4[nH]cc(C)c34)c(F)c2)n1 [Example 3, (S)-2-(3-fluoro-4-((3-methyl-1H-pyrrolo[2,3-b]pyridin-4-yl)oxy)phenyl)-1-(3-methyl-1,2,4-oxadiazol-5-yl)ethanamine]	5 to 50	5 to 50
Cc1c[nH]c2nccc(Oc3ccc(C[C@H](N)c4nc(-c5ccccc5)no4)cc3F)c12 [Example 1, (S)-2-(3-fluoro-4((3-methyl-1H-pyrrolo[2,3-b]pyridin-4-yl)oxy)phenyl)-1-(3-phenyl-1,2,4-oxadiazol-5-yl)ethanamine]	5 to 50	5 to 50
COCCc1noc([C@@H](N)Cc2ccc(Oc3ccnc4[nH]cc(C)c34)c(F)c2)n1 [Example 2, (S)-2-(3-fluoro-4-((3-methyl-1H-pyrrolo[2,3-b]pyridin-4-yl)oxy)phenyl)-1-(3-(2-methoxyethyl)-1,2,4-oxadiazol-5-yl)ethanamine]	5 to 50	5 to 50

— patent publication US11578068B2, “Oxadiazole derivatives as Rho-Kinase Inhibitors” (Chiesi Farmaceutici S.p.A., priority 2017, dated 2023)
